Test results: patent US11964960B2 (Cornell University, priority 2018, dated 2024)
Counter-ions that a name gives are not always drawn.

target: T1, S1P2 (Homo sapiens, UniProt O95136); assay: GLISA RhoA activation - antagonist assay; format: cell-based; settings: 1 μM compound, CHO-S1P2-FL cells
T1 construct: Flag; expressed in transfected cells; host or cells: Chinese hamster ovary (CHO) cells, doxycycline-inducible (CHO-S1P2-FL / CHO-S1PR2 FL)
Protocol: GLISA RhoA Activation—Antagonist Assay
GLISA assays were performed using RhoA (BK124) activation kit purchased from Cytoskeleton Inc., Denver, CO Doxycycline-inducible Flag-tag S1P2 expressing Chinese hamster ovary (CHO) cells (CHO-S1P2-FL) were seeded in a 6-well plate, 1.5×10^5 cells per well. Cells were stimulated with […] of Doxycycline to induce S1P2 expression in serum free IMDM media with 0.1% BSA/PBS. Following day, cells were stimulated with the compounds described herein (1 nM-10 μM) or 1 μM JTE-013 for 1 hour at 37° C. Following compound incubation, cells were washed with PBS×3 and induced with 100 nM […] for 5 min. […] Protein concentration was examined using GLISA—Precision Red Advanced Protein assay reagent as described in assay manual. Lysates were immobilized on GTP-bound capture plate and GLISA assay was performed based on manufacture recommendations as reported previously.

T1 sequence (O95136 whole entry, species assumed): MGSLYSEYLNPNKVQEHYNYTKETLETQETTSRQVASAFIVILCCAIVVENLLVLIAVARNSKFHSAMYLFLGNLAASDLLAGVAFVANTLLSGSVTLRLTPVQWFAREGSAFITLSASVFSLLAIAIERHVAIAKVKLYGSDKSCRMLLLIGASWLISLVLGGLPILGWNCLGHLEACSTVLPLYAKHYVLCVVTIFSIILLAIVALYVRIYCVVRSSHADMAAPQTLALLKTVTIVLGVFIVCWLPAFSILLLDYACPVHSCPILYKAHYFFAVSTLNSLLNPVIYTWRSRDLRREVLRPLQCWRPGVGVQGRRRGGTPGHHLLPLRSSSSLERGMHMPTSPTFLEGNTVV

Compared with Cc1cc(C(=O)Cn2cc(Br)ccc2=O)c(C)n1Cc1ccc(F)cc1 [Compound 28, 5-bromo-1-(2-(1-(4-fluorobenzyl)-2,5-dimethyl-1H-pyrrol-3-yl)-2-oxoethyl)pyridin-2(1H)-one], Cc1cc(C(=O)C(C)n2cc(Br)ccc2=O)c(C)n1Cc1ccc(F)cc1 (stereo not shown) [Compound 18, 5-bromo-1-(1-(1-(4-fluorobenzyl)-2,5-dimethyl-1H-pyrrol-3-yl)-1-oxopropan-2-yl)pyridin-2(1H)-one] is higher in inhibition at 1 µM: 58% for the first, 76% for the second.

First: Cc1cc(C(=O)C(C)n2cc(Br)ccc2=O)c(C)n1CC1CCOCC1 (stereo not shown) [Compound 10, 5-bromo-1-(1-(2,5-dimethyl-1-((tetrahydro-2H-pyran-4-yl)methyl)-1H-pyrrol-3-yl)-1-oxopropan-2-yl)pyridin-2(1H)-one]
Second: Cc1cc(C(=O)C(C)n2cc(Br)ccc2=O)c(C)n1CC1CC1 (stereo not shown) [Example 58, 5-Bromo-1-(1-(1-(cyclopropylmethyl)-2,5-dimethyl-1H-pyrrol-3-yl)-1-oxopropan-2-yl)pyridin-2(1H)-one]
The inhibition at 1 µM of the first is higher: 39% for the first, < 10% for the second.

Going from Cc1cc(C(=O)C(C)n2cc(Br)ccc2=O)c(C)n1Cc1ccc(C#N)cc1 (stereo not shown) [Compound 16, 4-((3-(2-(5-bromo-2-oxopyridin-1(2H)-yl)propanoyl)-2,5-dimethyl-1H-pyrrol-1-yl)methyl)benzonitrile] to Cc1cc(C(=O)C(C)n2cc(Br)ccc2=O)c(C)n1Cc1cccc(C#N)c1 (stereo not shown) [Compound 15, 3-((3-(2-(5-bromo-2-oxopyridin-1(2H)-yl)propanoyl)-2,5-dimethyl-1H-pyrrol-1-yl)methyl)benzonitrile], the inhibition at 1 µM rises from 39% to 70%.

Going from Cc1cc(C(=O)C(C)n2cc(Br)ccc2=O)c(C)n1Cc1ccccc1F (stereo not shown) [Compound 19, 5-bromo-1-(1-(1-(2-fluorobenzyl)-2,5-dimethyl-1H-pyrrol-3-yl)-1-oxopropan-2-yl)pyridin-2(1H)-one] to Cc1cc(C(=O)C(C)n2cc(Br)ccc2=O)c(C)n1Cc1ccccc1 (stereo not shown) [Compound 4, 1-(1-(1-benzyl-2,5-dimethyl-1H-pyrrol-3-yl)-1-oxopropan-2-yl)-5-bromopyridin-2(1H)-one], the inhibition at 1 µM rises from 44% to 86%.

First: Cc1cc(C(=O)C(C)n2cc(Br)ccc2=O)c(C)n1Cc1cccc(C(=O)O)c1 (stereo not shown) [Compound 23, 3-((3-(2-(5-bromo-2-oxopyridin-1(2H)-yl)propanoyl)-2,5-dimethyl-1H-pyrrol-1-yl)metnyl)benzoic add]
Second: Cc1cc(C(=O)C(C)n2cc(Br)ccc2=O)c(C)n1Cc1cccc(S(C)(=O)=O)c1 (stereo not shown) [Compound 14, 5-bromo-1-(1-(2,5-dimethyl-1-(3-(methylsulfonyl)benzyl)-1H-1-pyrrol-3-yl)-1-oxopropan-2-yl)pyridin-2(1H)-one]
The inhibition at 1 µM of the first is higher: 69% for the first, 35% for the second.

Compared with Cc1nc(Cn2c(C)cc(C(=O)C(C)n3cc(Br)ccc3=O)c2C)no1 (stereo not shown) [Compound 5, 5-bromo-1-(1-(2,5-dimethyl-1-((5-methyl-1,2,4-oxadiazol-3-yl)methyl)-1H-pyrrol-3-yl)-1-oxopropan-2-yl)pyridin-2(1H)-one], Cc1cc(C(=O)C(C)n2cc(Br)ccc2=O)c(C)n1Cc1ncccn1 (stereo not shown) [Compound 7, 5-bromo-1-(1-(2,5-dimethyl-1-(pyrimidin-2-ylmethyl)-1H-pyrrol-3-yl)-1-oxopropan-2-yl)pyridin-2(1H)-one] is higher in inhibition at 1 µM: 48% for the first, 58% for the second.

Compared with Cc1cc(C(=O)C(C)n2cc(Br)ccc2=O)c(C)n1CC1CCC1 (stereo not shown) [Example 59, 5-Bromo-1-(1-(1-(cyclobutylmethyl)-2,5-dimethyl-1H-pyrrol-3-yl)-1-oxopropan-2-yl)pyridin-2(1H)-one], Cc1cc(C(=O)C(C)n2cc(Br)ccc2=O)c(C)n1Cc1cccc(C(F)F)c1 (stereo not shown) [Compound 21, 5-bromo-1-(1-(1-(3-(difluoromethyl)benzyl)-2,5-dimethyl-1H-pyrrol-3-yl)-1-oxopropan-2-yl)pyridin-2(1H)-one] is higher in inhibition at 1 µM: < 10% for the first, 42% for the second.

Compared with Cc1cc(C(=O)Cn2cc(I)ccc2=O)c(C)n1Cc1ccccc1 [Compound 2, 1-(2-(1-benzyl-2,5-dimethyl-1H-pyrrol-3-yl)-2-oxoethyl)-5-iodopyridin-2(1H)-one], Cc1cc(C(=O)Cn2cc(C#N)ccc2=O)c(C)n1CCc1ccccc1 [Example 91, 1-(2-(2,5-Dimethyl-1-phenethyl-1H-pyrrol-3-yl)-2-oxoethyl)-6-oxo-1,6-dihydropyridine-3-carbonitrile] is lower in inhibition at 1 µM: 57% for the first, 12% for the second.

Compared with C#Cc1ccc(=O)n(CC(=O)c2cc(C)n(Cc3ccc(F)cc3)n2)c1 [Compound 31, 5-ethynyl-1-(2-(1-(4-fluorobenzyl)-5-methyl-1H-pyrazol-3-yl)-2-oxoethyl)pyridin-2(1H)-one], O=C(Cn1cc(Br)ccc1=O)N1CCC(c2ccc(F)cc2)C1 (stereo not shown) [Example 67, 5-Bromo-1-(2-(3-(4-fluorophenyl)pyrrolidin-1-yl)-2-oxoethyl)pyridin-2(1H)-one] is lower in inhibition at 1 µM: 69% for the first, 42% for the second.

Compound Cc1cc(C(=O)C(C)n2cc(Br)ccc2=O)c(C)n1Cc1ccc(S(C)(=O)=O)cc1 (stereo not shown) [Compound 13, 5-bromo-1-(1-(2,5-dimethyl-1-(4-(methylsulfonyl)benzyl)-1H-pyrrol-3-yl)-1-oxopropan-2-yl)pyridin-2(1H)-one] has an inhibition at 1 µM of 29%.

same assay, conditions: CHO-S1P2-FL cells, 1 hour compound incubation, then for 5 min

First: C=C(c1ccc(=O)n(CC(=O)c2cnn(Cc3ccccc3)c2C)c1)C(F)(F)F [Example 84, 1-(2-(1-Benzyl-5-methyl-1H-pyrazol-4-yl)-2-oxoethyl)-5-(3,3,3-trifluoroprop-1-en-2-yl)pyridin-2(1H)-one]
Second: C=C(C)c1ccc(=O)n(CC(=O)c2cnn(Cc3ccccc3)c2C)c1 [Example 81, 1-(2-(1-Benzyl-5-methyl-1H-pyrazol-4-yl)-2-oxoethyl)-5-(prop-1-en-2-yl)pyridin-2(1H)-one]
The IC50 of the first is 4.2-fold lower: 43 nM for the first, 181 nM for the second.

Cc1cc(=O)n(CC(=O)c2cc(C)n(Cc3ccccc3)c2C)cc1C#N [Example 49, 1-(2-(1-Benzyl-2,5-dimethyl-1H-pyrrol-3-yl)-2-oxoethyl)-4-methyl-6-oxo-1,6-dihydropyridine-3-carbonitrile] and Cc1cc(C(=O)Cn2cc(Cl)ccc2=O)c(C)n1Cc1ccccc1 [Example 45, 1-(2-(1-Benzyl-2,5-dimethyl-1H-pyrrol-3-yl)-2-oxoethyl)-5-chloropyridin-2(1H)-one] cannot be ordered by IC50: > 10000 nM for the first, > 10000 nM for the second.

Going from Cc1cc(C(=O)C(C)n2cc(Br)ccc2=O)c(C)n1Cc1cccc(C(=O)O)c1 (stereo not shown) [Compound 23, 3-((3-(2-(5-bromo-2-oxopyridin-1(2H)-yl)propanoyl)-2,5-dimethyl-1H-pyrrol-1-yl)metnyl)benzoic add] to Cc1cc(C(=O)C(C)n2cc(Br)ccc2=O)c(C)n1Cc1ccccc1 (stereo not shown) [Compound 4, 1-(1-(1-benzyl-2,5-dimethyl-1H-pyrrol-3-yl)-1-oxopropan-2-yl)-5-bromopyridin-2(1H)-one], the IC50 falls from 297 nM to 26 nM (11-fold). The second is the more potent here.

Going from C#Cc1ccc(=O)n(Cc2nccc3c2cnn3Cc2ccccc2)c1 [Compound 131, 1-((1-benzyl-1H-pyrazolo[4,3-c]pyridin-4-yl)methyl)-5-ethynylpyridin-2(1H)one hydrochloride] to O=c1ccc(Br)cn1Cc1nccc2c1cnn2Cc1ccccc1 [Compound 130, 1-((1-Benzyl-1H-pyrazolo[4,3-c]pyridin-4-y)methyl)-5-bromopyridin-2(1H)-one hydrochloride], the IC50 rises from 58 nM to 140 nM (2.4-fold).

First: Cc1c(C(=O)Cn2cc(Br)ncc2=O)cnn1Cc1ccccc1 [Example 70, 1-(2-(1-Benzyl-5-methyl-1H-pyrazol-4-yl)-2-oxoethyl)-5-bromopyrazin-2(1H)-one]
Second: Cc1cc(C(=O)Cn2cc(I)ccc2=O)c(C)n1Cc1ccccc1 [Compound 2, 1-(2-(1-benzyl-2,5-dimethyl-1H-pyrrol-3-yl)-2-oxoethyl)-5-iodopyridin-2(1H)-one]
The IC50 of the first is 8.1-fold lower: 181 nM for the first, 1470 nM for the second. The first is the more potent here.

Going from C#Cc1ccc(=O)n(C(C)C(=O)c2cnn(Cc3ccc(F)cc3F)c2C)n1 (stereo not shown) [Example 75, 2-(1-(1-(2,4-Difluorobenzyl)-5-methyl-1H-pyrazol-4-yl)-1-oxopropan-2-yl)-6-ethynylpyridazin-3(2H)-one] to C#Cc1ccc(=O)n(CC(=O)c2cc(C)n(Cc3ccc(F)cc3)n2)c1 [Compound 31, 5-ethynyl-1-(2-(1-(4-fluorobenzyl)-5-methyl-1H-pyrazol-3-yl)-2-oxoethyl)pyridin-2(1H)-one], the IC50 rises from 58 nM to 253 nM (4.4-fold). The first is the more potent here.
